The text below walks through data of patent publication US12458643B2, “Antidepressant/anxiolytic drug in which PAC1 receptor antagonist is used” (KAGOSHIMA UNIVERSITY, priority 2020, dated 2025).

Molecules are shown by their SMILES.

Holding throughout (format): in vivo, mouse
The test system of experiment [1] is single-restraint stress mice. As to the kind of experiment: Single-restraint stress-induced anxiety-like behavior, light-dark test. Conditions: 30 mg/kg i.p. 30 min before 30 min restraint; 10 min test. How it is done: Male C57BL/6J mice (8 to 12 weeks old) were acclimatized to a laboratory (illuminance: 330 lx) for 60 minutes. Then, a vehicle (10% DMSO solution; dissolved in saline; n=9), PA-8 (30 mg/kg; n=9) or PA-81004 (30 mg/kg; n=10) was intraperitoneally administered thereto (0.1 mL/10 g). After a lapse of 30 minutes after administration, restraint stress (stress caused by holding the mice in tubes of 2.8 cm in diameter with a hole for breathing) was applied thereto for 30 minutes. The light-dark test (10 min) was conducted from immediately after the completion of restraint. Mice that freely behaved in a home cage for 30 minutes without being held and without accessing water and food were used as a control (n=12). The results are shown in FIG. 10 (A: time spent in the light box, B: the number of transitions between the light and dark boxes; light box illuminance: 330 lx). The data was indicated by mean±standard error. **P<0.01, *P<0.05 (One-way ANOVA followed by Tukey-Kramer test). […] Male C57BL/6J mice (8 to 12 weeks old) were acclimatized to a laboratory (illuminance: 330 lx) for 60 minutes. Then, a vehicle (10% DMSO solution; dissolved in saline; n=11), PA-9 (30 mg/kg; n=8) or PA-915 (30 mg/kg; n=9) was intraperitoneally administered thereto (0.1 mL/10 g). After a lapse of 30 minutes after administration, restraint stress (stress caused by holding the mice in tubes of 2.8 cm in diameter with a hole for breathing) was applied thereto for 30 minutes. The light-dark test (10 min) was conducted from immediately after the completion of restraint. Mice that freely behaved in a home cage for 30 minutes without being held and without accessing water and food were used as a control (n=11). The results are shown in FIG. 12 (A: time spent in the light box, B: the number of transitions between the light and dark boxes; light box illuminance: 330 lx). The data was indicated by mean±standard error. **P<0.01, *P<0.05 (One-way ANOVA followed by Tukey-Kramer test).

In experiment [2] the test system is normal mice. As to the kind of experiment: Light-dark test in normal mice. Conditions: normal male C57BL/6J mice, 30 mg/kg i.p., 60 min after administration, 10 min test. How it is done: The effects of PA-8 and PA-81004 on normal mice were evaluated by a light-dark test (test to measure spontaneous locomotion by exploiting the properties of mice to avoid light environments, and placing the mice in a light box and a dark box joined together (each 20 cm×20 cm, height: 30 cm); in this test, anxiety-like behavior is evaluated by measuring times spent in the light box and the dark box and the number of transitions between the light box and the dark box).
Male C57BL/6J mice (8 to 12 weeks old) were acclimatized to a laboratory for 60 minutes. Then, a vehicle (10% DMSO solution; dissolved in saline; n=13), PA-8 (30 mg/kg; n=12) or PA-81004 (30 mg/kg; n=12) was intraperitoneally administered thereto (0.1 mL/10 g). After a lapse of 60 minutes after administration, the test was conducted for 10 minutes. The results are shown in FIG. 2 (A: time spent in the light box, B: the number of transitions between the light and dark boxes; light box illuminance: 330 lx).
The effects of PA-9 and PA-915 on normal mice were evaluated by the light-dark test.
Male C57BL/6J mice (8 to 12 weeks old) were acclimatized to a laboratory (illuminance: 330 lx) for 60 minutes. Then, a vehicle (10% DMSO solution; dissolved in saline; n=12), PA-9 (30 mg/kg; n=10) or PA-915 (30 mg/kg; n=10) was intraperitoneally administered thereto (0.1 mL/10 g). After a lapse of 60 minutes after administration, the test was conducted for 10 minutes. The results are shown in FIG. 6 (A: time spent in the light box, B: the number of transitions between the light and dark boxes; light box illuminance: 330 lx).

The test system of experiment [3] is normal mice. As to the kind of experiment: Elevated plus maze test in normal mice. The note with it: normal male C57BL/6J mice, 30 mg/kg i.p., 60 min after administration, 5 min test. On the procedure: The effects of PA-8 and PA-81004 on normal mice were evaluated by an elevated plus maze test (test that exploits the properties of mice to avoid heights and prefer to stay near walls; in this test, anxiety-like behavior is evaluated by placing the mice at the center of a maze disposed at a height of 50 cm in which a 26 cm long and 8 cm wide open arm without walls and a closed-arm with walls are disposed in a cross shape, and measuring a time spent in the open arm and the number of entries thereto).
Male C57BL/6J mice (8 to 12 weeks old) were acclimatized to a laboratory (illuminance: 50 lx) for 60 minutes. Then, a vehicle (10% DMSO solution; dissolved in saline; n=13), PA-8 (30 mg/kg; n=12) or PA-81004 (30 mg/kg; n=12) was intraperitoneally administered thereto (0.1 mL/10 g). After a lapse of 60 minutes after administration, the test was conducted for 5 minutes. The results are shown in FIG. 3 (A: total distance traveled, B: the number of open arm (course without walls) entries, C: time spent in the open arm).
The effects of PA-9 and PA-915 on normal mice were evaluated by the elevated plus maze test.
Male C57BL/6J mice (8 to 12 weeks old) were acclimatized to a laboratory (illuminance: 50 lx) for 60 minutes. Then, a vehicle (10% DMSO solution; dissolved in saline; n=8), PA-9 (30 mg/kg; n=8) or PA-915 (30 mg/kg; n=7) was intraperitoneally administered thereto (0.1 mL/10 g). After a lapse of 60 minutes after administration, the test was conducted for 5 minutes. The results are shown in FIG. 7 (A: total distance traveled, B: the number of open arm entries, C: time spent in the open arm).

For the molecule `C=CCOc1ccc(C2CC(=O)Nc3nc(N)[nH]c(=O)c32)cc1OC` (stereo not drawn) [PA-8], the “effect on single-restraint stress-induced anxiety-like behavior (light-dark test)” value (shortened to “effect”) in experiment [1] is on record as “improving effects”. In addition, the “pharmacological action in light-dark test (time in light box, transitions)” value in experiment [2] is recorded as “no pharmacological action”. In experiment [3], the “pharmacological action in elevated plus maze test (total distance, open arm entries, time in open arm)” value is “no pharmacological action”.
In the case of `O=C(NCCc1c[nH]cn1)C1CC(=O)N(c2n[nH]c3ccccc23)C1` (stereo not drawn) [PA-9], in experiment [1], the “effect” value is recorded as “improving effects”. Also, the “pharmacological action in light-dark test (time in light box, transitions)” value in experiment [2] was “no pharmacological action”. In experiment [3], the “pharmacological action in elevated plus maze test (total distance, open arm entries, time in open arm)” value was “no pharmacological action”.
For the molecule `Nc1nc2c(c(=O)[nH]1)C(c1cccc(OC(F)(F)F)c1)CC(=O)N2` (stereo not drawn) [PA-81004, 2-Amino-5-(3-trifluoromethoxyphenyl)-5,8-dihydro-3H,6H-pyrido[2,3-d]pyrimidine-4,7-dione], the “effect” value in experiment [1] is reported as “improving effects”. In experiment [2], the “pharmacological action in light-dark test (time in light box, transitions)” value is “no pharmacological action”. For the same molecule, the “pharmacological action in elevated plus maze test (total distance, open arm entries, time in open arm)” value in experiment [3] is “no pharmacological action”.
